For 4 compounds, IC50 and Ratio IC50 results are on record in ChEMBL document CHEMBL3045197, “Design and synthesis of new 2-aryl, 3-benzyl-(1,3-oxazolidine or 1,3-thiazolidine)-4-ones as selective cyclooxygenase (COX-2) inhibitors” (Med Chem Res, 2010).

pIC50: −log10 of the molar value. Bounds are passed on as bounds.

In general, pIC50 refers to the negative decadic logarithm of the IC50, by convention in mol/L.

Experiment [1] deals with Prostaglandin G/H synthase 2 (Ovis aries) (UniProt P79208). In words: Inhibition of Ovis aries (sheep) COX-2 by Chemoiluminescence assay.
Chain of Prostaglandin G/H synthase 2 (Ovis aries) (P79208 whole entry, looked up): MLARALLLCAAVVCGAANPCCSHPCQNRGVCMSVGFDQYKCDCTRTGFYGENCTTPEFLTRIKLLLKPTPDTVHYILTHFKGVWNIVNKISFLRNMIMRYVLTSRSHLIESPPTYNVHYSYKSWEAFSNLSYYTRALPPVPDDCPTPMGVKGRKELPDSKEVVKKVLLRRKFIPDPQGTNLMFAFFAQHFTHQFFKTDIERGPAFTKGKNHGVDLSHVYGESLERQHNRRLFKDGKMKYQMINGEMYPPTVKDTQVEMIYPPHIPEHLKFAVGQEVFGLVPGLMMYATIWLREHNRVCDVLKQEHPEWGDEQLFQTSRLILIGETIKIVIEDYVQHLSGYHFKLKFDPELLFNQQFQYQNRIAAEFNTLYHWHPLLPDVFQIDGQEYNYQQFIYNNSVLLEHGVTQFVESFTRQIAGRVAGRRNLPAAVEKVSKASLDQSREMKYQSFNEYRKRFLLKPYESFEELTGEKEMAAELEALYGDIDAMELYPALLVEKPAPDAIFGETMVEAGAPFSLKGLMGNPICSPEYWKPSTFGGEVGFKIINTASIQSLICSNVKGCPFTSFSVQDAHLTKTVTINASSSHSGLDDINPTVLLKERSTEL
Experiment [2] has as its target Prostaglandin G/H synthase 1 (Ovis aries) (UniProt P05979). The experiment is described as follows: Inhibition of Ovis aries (sheep) COX-1 by Chemoiluminescence assay.
For a further experiment, the species on record is Ovis aries. The experiment is described as follows: Selectivity index, ratio of IC50 for Ovis aries (sheep) COX-1 to IC50 for Ovis aries (sheep) COX-2.

As for `CC1OC(c2ccc(S(C)(=O)=O)cc2)N(Cc2ccccc2)C1=O` (racemic), the pIC50 in experiment [1] was 6.57; in experiment [2], 4.07. Besides, in the experiment filed under Ovis aries, the Ratio IC50 worked out at 318.

On to `CC1SC(c2ccc(S(C)(=O)=O)cc2)N(Cc2ccccc2)C1=O` (racemic), for which the results for the negative logarithm of the IC50 (pIC50) in experiment [1] and in experiment [2] were 6.47 and 4.12, respectively. For the same compound, in the experiment filed under Ovis aries, the Ratio IC50 was found to be 222.

`CS(=O)(=O)c1ccc(C2SCC(=O)N2Cc2ccccc2)cc1` (configuration not stated): the results for the negative-log IC50 (pIC50) in experiment [1] and in experiment [2] were 6.49 and below 4.00, respectively. Besides, the Ratio IC50 in the experiment filed under Ovis aries is above 312.

Turning to `CS(=O)(=O)c1ccc(C2OCC(=O)N2Cc2ccccc2)cc1` (configuration not stated), the negative-log IC50 (pIC50) is 6.68 in experiment [1] and below 4.00 in experiment [2]. Also, the Ratio IC50 in the experiment filed under Ovis aries was above 476.
